{"source": "patent US20020004046A1", "about": "“Combination therapy of respiratory diseases using antibodies” (priority 2000, published 2002)", "origin": "cited, not measured here", "key": {"[1]": {"conditions": "compared with untreated patients"}}}
{"smiles": "NC(=O)c1ncn([C@@H]2O[C@H](CO)[C@@H](O)[C@H]2O)n1", "note": "[ribavirin]", "values": [{"measurement": "level of secondary infection following cessation of treatment", "setting": "[1]", "result": "significantly higher"}, {"measurement": "bioavailability", "setting": "given orally", "result": "about 45%"}, {"measurement": "time of peak concentrations in plasma", "setting": "in vivo, po", "result": "1 to 2", "unit": "h"}]}
